Measured values from patent US5700801A, “Piperazine derivatives, pharmaceutical compositions containing these compounds, their use and processes for preparing them” (Karl Thomae, GmbH, priority 1994, dated 1997).
Counter-ions that a name gives are not always drawn.

Legend:
[1] = target: human thrombocytes; assay: Inhibition of binding of ^3 H-BIBU 52 to human thrombocytes (table: Fibrinogen binding test); details: ^3 H-BIBU 52 (5 nM), human thrombocytes in plasma, ambient temperature, 20 minutes
Description: 1. Inhibition of binding of ^3 H-BIBU 52 to human thrombocytes:
A suspension of human thrombocytes in plasma is incubated with ^3 H-BIBU 52 [=(3S,5S)-5-[(4'-amidino-4-biphenylyl)oxymethyl]-3-[(carboxyl)methyl]-2-pyrrolidinone[3-^3 H-4-biphenylyl]] (see DE-A-4,214,245), which replaces the ^125 I fibrinogen ligand known from the literature, and various concentrations of the substance to be tested. The free and bound ligand is separated by centrifuging and quantified by scintillation counting. The inhibition of ^3 H-BIBU 52 binding by the test substance is determined from the measurements obtained.
In order to do this, donor blood is taken from an anticubital vein and anticoagulated with trisodium citrate (final concentration 13 mM). The blood is centrifuged for 10 minutes at 170×g and the supernatant platelet-rich plasma (PRP) is removed. The remaining blood is vigorously centrifuged once more in order to obtain plasma. The PRP is diluted 1:10 with autologous plasma. 750 μl are incubated with 50 μl of physiological saline solution, 100 μl of test substance solution, 50 μl of ^14 C-sucrose (3,700 Bq) and 50 μl of ^3 H-BIBU 52 (final concentration: 5 nM) at ambient temperature for 20 minutes. In order to measure the non-specific binding, 5 μl of BIBU 52 (final concentration: 30 μM) are used instead of the test substance. The samples are centrifuged for 20 seconds at 10,000×g and the supernatant is poured off. 100 μl thereof are counted in order to determine the amount of free ligand. The pellet is dissolved in 500 μl of 0.2N NaOH, 450 μl are mixed with 2 ml of scintillator and 25 μl of 5N HCl and measured. The residual plasma remaining in the pellet is determined from the ^14 C-content and the bound ligand is determined from the ^3 H-measurement. After the non-specific binding has been deducted, the pellet activity is plotted against the concentration of the test substance and the concentration for a 50% inhibition of binding is determined.

[2] = system: thrombocyte aggregation in platelet-rich plasma taken from healthy volunteers; assay: Antithrombotic activity: inhibition of collagen-induced platelet aggregation (Born and Cross) in platelet-rich plasma; assay type: cell-based; details: Homo sapiens, 10 minutes preincubation at 37° C.
Description: 2. Antithrombotic activity
The thrombocyte aggregation is measured using the method of Born and Cross (J. Physiol. 170: 397 (1964)) in platelet-rich plasma taken from healthy volunteers. To inhibit coagulation, the blood is mixed with 3.14% sodium citrate in a volume ratio of 1:10.
Collagen-induced aggregation
The pattern of the decrease in optical density of the platelet suspension is photometrically measured and recorded after the addition of the aggregation-triggering substance. The rate of aggregation is determined from the angle of inclination of the density curve. The point on the curve where there is maximum light transmittance is used to calculate the optical density.
The concentration of collagen used is as small as possible but sufficient to produce an irreversible reaction curve. Standard commercial collagen produced by Hormonchemie of Munich is used.
Before the addition of the collagen the plasma is incubated for 10 minutes with the substance at 37° C.
From the measurements obtained the EC50 is determined, which indicates the concentration giving a 50% change in the optical density in terms of the inhibition of aggregation.

| Compound | IC50 [1] [nM] | EC50 [2] [nM] |
| --- | --- | --- |
| O=C(O)CC[C@H]1CC[C@H](NC(=O)N2CCN(c3ccncc3)CC2)CC1 [5(6), 3-[4-trans-[4-(4-Pyridyl)-piperazin-1-yl]carbonylamino]cyclohexylpropionicacid hydrochloride] | 0.25 | 0.16 |
| O=C(CC(=O)N1CCN(c2ccncc2)CC1)N[C@H]1CC[C@H](C(=O)O)CC1 [5(7), [4-trans-[4-(4-Pyridyl)-piperazin-1-yl]malonylamino]cyclohexylcarboxylic a cid hydrochloride] | 0.23 | 0.25 |
| O=C(O)CN1CCC(NC(=O)N2CCN(c3ccncc3)CC2)CC1 [5(9), [4-[4-(4-Pyridyl)-piperazin-1-yl]carbonylamino]piperidino-acetic acid] | 0.43 | 4.4 |
| COC(=O)[C@H]1CC[C@H](NC(=O)CCN2CCN(c3ccncc3)CC2)CC1 [Example 1, Methyl[4-trans-[3-[4-(4-pyridyl)-piperazin-1-yl]propionyl]-amino]cyclohexane carboxylate] | > 100 | 3.32 |

More lines, main results first:

| IC50 [1] [nM] | Compound | EC50 [2] [nM] |
| --- | --- | --- |
| 0.41 | O=C(O)CCN1CCC(NC(=O)N2CCN(c3ccncc3)CC2)CC1 [5(8), 3-[4-[4-(4-pyridyl)-piperazin-1-yl]carbonylamino]piperidinopropionic acid dihydrochloride] | 0.6 |
| 0.21 | O=C(CCN1CCN(c2ccncc2)CC1)N[C@H]1CC[C@H](C(=O)O)CC1 [Example 5, [4-trans-[3-[4-(4-Pyridyl)-piperazin-1-yl]propionyl]amino]-cyclohexane-carboxylic acid dihydrochloride] | 0.26 |
